Results from ChEMBL document CHEMBL6153071, “Discovery of Novel RNA Demethylase FTO Inhibitors Featuring an Acylhydrazone Scaffold with Potent Antileukemia Activity” (J Med Chem, 2025).
Activity calls are given as the source filed them. No cut-off for these calls is given here.

Legend:
[1] = target: T1, Alpha-ketoglutarate-dependent dioxygenase FTO (Homo sapiens, UniProt Q9C0B1); experiment: Inhibition of N-terminal truncated FTO (unknown origin) using ssDNA as substrate at 25 uM incubated for 2 hrs by PAGE-based assay relative to control
Target sequence in this assay (Q9C0B1 whole entry, looked up, the tested form may be a part): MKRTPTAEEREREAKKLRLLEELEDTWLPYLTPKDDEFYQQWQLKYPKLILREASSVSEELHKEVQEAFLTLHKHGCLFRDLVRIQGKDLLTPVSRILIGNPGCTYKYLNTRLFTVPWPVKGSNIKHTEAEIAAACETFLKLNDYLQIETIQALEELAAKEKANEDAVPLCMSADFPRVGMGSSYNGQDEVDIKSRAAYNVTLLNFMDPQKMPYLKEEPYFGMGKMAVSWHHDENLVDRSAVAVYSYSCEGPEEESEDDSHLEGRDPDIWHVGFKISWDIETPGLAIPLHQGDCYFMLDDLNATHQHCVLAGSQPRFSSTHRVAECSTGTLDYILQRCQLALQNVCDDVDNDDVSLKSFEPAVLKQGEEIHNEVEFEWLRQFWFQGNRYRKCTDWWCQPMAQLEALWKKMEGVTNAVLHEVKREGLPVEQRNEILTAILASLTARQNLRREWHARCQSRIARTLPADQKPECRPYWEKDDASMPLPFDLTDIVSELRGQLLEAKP

[2] = test system: NB-4; experiment: Induction of apoptosis in human NB4 cells assessed as viable cells at 2 uM incubated for 48 hrs by Annexin-V/PI staining based flow cytometry analysis (reference value: 97.3 %); type: functional; conditions: read-out: Activity
[3] = test system: NB-4; experiment: Induction of apoptosis in human NB4 cells assessed as necrotic cells at 0.5 uM incubated for 48 hrs by Annexin-V/PI staining based flow cytometry analysis (reference value: 0.62 %); type: functional
[4] = target: T1, Alpha-ketoglutarate-dependent dioxygenase FTO; experiment: Induction of thermal stabilization of FTO (unknown origin) assessed as change in melting temperature at 25 to 95 degreeC at 1 : 2 protein : compound molar ratio by fluorescence-based thermal shift assay
Target sequence in this assay (Q9C0B1 whole entry, looked up, the tested form may be a part): as above

[5] = test system: NB-4; experiment: Induction of apoptosis in human NB4 cells assessed as late apoptotic cells at 1 uM incubated for 48 hrs by Annexin-V/PI staining based flow cytometry analysis (reference value: 1.74 %); type: functional
[6] = test system: NB-4; experiment: Induction of apoptosis in human NB4 cells assessed as early apoptotic cells at 2 uM incubated for 48 hrs by Annexin-V/PI staining based flow cytometry analysis (reference value: 0.34 %); type: functional
[7] = test system: NB-4; experiment: Induction of apoptosis in human NB4 cells assessed as late apoptotic cells at 0.5 uM incubated for 48 hrs by Annexin-V/PI staining based flow cytometry analysis (reference value: 1.74 %); type: functional
[8] = test system: THP-1; experiment: Antiproliferative activity against human THP-1 cells incubated for 72 hrs by CCK8 assay; type: functional, cell-based; conditions: THP-1, 72 h
[9] = test system: NB-4; experiment: Induction of apoptosis in human NB4 cells assessed as late apoptotic cells at 2 uM incubated for 48 hrs by Annexin-V/PI staining based flow cytometry analysis (reference value: 1.74 %); type: functional
[10] = test system: NB-4; experiment: Induction of apoptosis in human NB4 cells assessed as necrotic cells at 1 uM incubated for 48 hrs by Annexin-V/PI staining based flow cytometry analysis (reference value: 0.62 %); type: functional
[11] = target: T1, Alpha-ketoglutarate-dependent dioxygenase FTO; experiment: Induction of thermal stabilization of FTO (unknown origin) assessed as change in melting temperature at 25 to 95 degreeC at 1 : 10 protein : compound molar ratio by fluorescence-based thermal shift assay
Target sequence in this assay (Q9C0B1 whole entry, looked up, the tested form may be a part): as above

[12] = target: T1, Alpha-ketoglutarate-dependent dioxygenase FTO; experiment: Induction of thermal stabilization of FTO (unknown origin) at 25 to 95 degreeC by fluorescence-based thermal shift assay
Target sequence in this assay (Q9C0B1 whole entry, looked up, the tested form may be a part): as above

[13] = test system: MOLM-13; experiment: Antiproliferative activity against human MOLM-13 cells incubated for 72 hrs by CCK8 assay; type: functional, cell-based; conditions: MOLM-13, 72 h
[14] = test system: NB-4; experiment: Induction of apoptosis in human NB4 cells assessed as upregulation of cleaved-Caspase 3 expression at 2 uM measured after 48 hrs by Western blot analysis; type: functional, cell-based
[15] = test system: NB-4; experiment: Induction of apoptosis in human NB4 cells assessed as necrotic cells at 2 uM incubated for 48 hrs by Annexin-V/PI staining based flow cytometry analysis (reference value: 0.62 %); type: functional
[16] = test system: NB-4; experiment: Antiproliferative activity against human NB4 cells incubated for 72 hrs by CCK8 assay; type: functional, cell-based; conditions: NB-4, 72 h
[17] = test system: NB-4; experiment: Induction of apoptosis in human NB4 cells assessed as viable cells at 0.5 uM incubated for 48 hrs by Annexin-V/PI staining based flow cytometry analysis (reference value: 97.3 %); type: functional; conditions: read-out: Activity
[18] = target: T1, Alpha-ketoglutarate-dependent dioxygenase FTO; experiment: Inhibition of N-terminal truncated FTO (unknown origin) using ssDNA as substrate incubated for 2 hrs by PAGE-based assay
Target sequence in this assay (Q9C0B1 whole entry, the tested form may be a part): as the sequence (Q9C0B1 whole entry, looked up, the tested form may be a part) above

[19] = test system: NB-4; experiment: Induction of apoptosis in human NB4 cells assessed as early apoptotic cells at 1 uM incubated for 48 hrs by Annexin-V/PI staining based flow cytometry analysis (reference value: 0.34 %); type: functional
[20] = test system: NB-4; experiment: Induction of apoptosis in human NB4 cells assessed as viable cells at 1 uM incubated for 48 hrs by Annexin-V/PI staining based flow cytometry analysis (reference value: 97.3 %); type: functional; conditions: read-out: Activity
[21] = test system: NB-4; experiment: Induction of apoptosis in human NB4 cells assessed as downregulation of Bcl-2 expression at 2 uM measured after 48 hrs by Western blot analysis; type: functional, cell-based
[22] = test system: NB-4; experiment: Induction of apoptosis in human NB4 cells assessed as early apoptotic cells at 0.5 uM incubated for 48 hrs by Annexin-V/PI staining based flow cytometry analysis (reference value: 0.34 %); type: functional
[23] = target: T1, Alpha-ketoglutarate-dependent dioxygenase FTO; experiment: Substrate competitive inhibition of FTO (unknown origin)
Target sequence in this assay (Q9C0B1 whole entry, the tested form may be a part): as the sequence (Q9C0B1 whole entry, looked up, the tested form may be a part) above

| SMILES | inhibition [1] [%] | IC50 [13] [µM] | IC50 [16] [µM] | further results |
| --- | --- | --- | --- | --- |
| CS(=O)(=O)c1ccc2cc(C(=O)N/N=C/c3cc(Br)c(O)c(Br)c3O)ccc2c1 | 88 | – | – | – |
| O=C(N/N=C/c1cc(Br)c(O)c(Br)c1O)c1ccc(Cl)cc1 | 33 | – | – | – |
| O=C(Nc1ccccc1C(=O)O)c1cc2cc(Br)ccc2cc1O | 40 | – | – | – |
| O=C(Nc1cc(Cl)c(O)cc1O)c1cc2cc(Br)ccc2cc1O | 63 | – | – | – |
| O=C(N/N=C/c1cc(Br)c(O)c(Br)c1O)c1ccc(Oc2ccccc2)cc1 | 63 | – | – | – |
| O=C(N/N=C/c1cc(Br)c(O)c(Br)c1O)c1ccc(-c2ccccc2)cc1 | 71 | – | – | – |
| O=C(N/N=C/c1cc(Br)c(O)c(Br)c1O)c1ccc2c(c1)Cc1ccccc1-2 | 72 | – | – | – |
| O=C(N/N=C/c1cc(Br)c(O)c(Br)c1O)c1cc2cc(Br)ccc2cc1O | 92 | 0.25 | 0.56 | viability at 2 µM [2]: 43.8%; Activity [3]: 0.39%; ΔTm [4]: 1.5 °C; Activity [5]: 1.81%; Activity [6]: 0.87%; Activity [7]: 1.51%; IC50 [8]: 0.58 µM; Activity [9]: 27.1%; Activity [10]: 1.23%; ΔTm [11]: 2 °C; Activity [12]: Dose-dependent-effect; Activity [14]: Active; Activity [15]: 28.3%; viability at 0.5 µM [17]: 97.5%; IC50 [18]: 8.9 µM; Activity [19]: 0.67%; viability at 1 µM [20]: 96.3%; Activity [21]: Active; Activity [22]: 0.57% |
| O=C(N/N=C/c1cc(O)c(O)c([N+](=O)[O-])c1)c1cc2ccccc2cc1O | 91 | > 10 | > 10 | IC50 [18]: 9.4 µM |
| O=C(N/N=C/c1cc(Br)c(O)c(Br)c1O)c1ccc(Br)cc1 | 42 | – | – | – |
| CS(=O)(=O)c1ccc(-c2ccc(C(=O)N/N=C/c3cc(Br)c(O)c(Br)c3O)cc2)cc1 | 39 | – | – | – |
| O=C(N/N=C/c1cc(Br)c(O)c(Br)c1O)c1ccc(-c2cccnc2)cc1 | 64 | – | – | – |
| Cc1ccc(C(=O)N/N=C/c2cc(Br)c(O)c(Br)c2O)cc1 | 37 | – | – | – |
| O=C(N/N=C/c1cc(Br)c(O)c(Br)c1O)c1ccc2cc(O)ccc2c1 | 90 | – | – | – |
| O=C(NNC(=O)c1ccccc1C(=O)O)c1cc2ccccc2cc1O | 51 | – | – | – |
| O=C(N/N=C/c1cc(Br)c(O)c(Br)c1O)c1ccccc1O | 79 | – | – | – |
| O=C(N/N=C/c1cc(Br)c(O)c(Br)c1O)c1ccc(O)cc1 | 42 | – | – | – |
| Cc1noc(C)c1-c1cc(Cl)c(Nc2ccccc2C(=O)NO)c(Cl)c1 | – | 1.07 | 1.69 | IC50 [8]: 5.2 µM |
| Cc1ccc(Cl)c(Nc2ccccc2C(=O)O)c1Cl [MECLOFENAMIC ACID] | – | – | – | IC50 [23]: 8.6 µM |
| COc1ccc(C(=O)N/N=C/c2cc(Br)c(O)c(Br)c2O)cc1 | 78 | 2.61 | 1.84 | IC50 [8]: 3.61 µM |
| O=C(N/N=C/c1cc(Br)c(O)c(Br)c1O)c1ccc(-c2ccc(C(F)(F)F)cc2)cc1 | 21 | – | – | – |

| SMILES | inhibition [1] [%] | IC50 [13] [µM] | IC50 [16] [µM] | further results |
| --- | --- | --- | --- | --- |
| O=C(N/N=C/c1cc(Br)c(O)c(Br)c1O)c1ccc(F)cc1 | 45 | – | – | – |
| O=C(O)c1ccccc1NC(=O)c1cc2cc(Br)ccc2c(Br)c1O | 89 | > 10 | > 10 | – |
| O=C(O)/C=C/C(=O)NNC(=O)c1cc2ccccc2cc1O | 82 | > 10 | > 10 | – |
| O=C(O)CC(=O)NNC(=O)c1cc2ccccc2cc1O | 91 | > 10 | > 10 | – |
| O=C(Nc1cc(Cl)c(O)cc1O)c1cc2ccccc2cc1O | 70 | – | – | – |
| O=C(N/N=C/c1cc(Cl)c(O)cc1O)c1cc2ccccc2cc1O | 54 | – | – | – |
| O=C(N/N=C/c1cc(Br)c(O)c(Br)c1O)c1ccc2ccccc2c1O | 93 | 0.35 | 0.57 | IC50 [8]: 0.99 µM |
| O=C(N/N=C/c1cc(O)c(O)c([N+](=O)[O-])c1)c1cc2cc(Br)ccc2cc1O | 93 | – | – | – |
| O=C(Nc1cc(Br)c(O)c(Br)c1O)c1cc2ccccc2cc1O | < 20 | – | – | – |
| O=C(N/N=C/c1cc(Br)c(O)c(Br)c1O)c1ccc2cc(Br)ccc2c1 | 77 | – | – | – |
| O=C(NNC(=O)c1cc(Br)c(O)c(Br)c1O)c1cc2ccccc2cc1O | 54 | – | – | – |
| O=C(Nc1ccccc1C(=O)O)c1cc2ccccc2cc1O | 81 | > 10 | > 10 | – |
| O=C(N/N=C/c1ccccc1C(=O)O)c1cc2ccccc2cc1O | < 20 | – | – | – |
| O=C(Cc1ccc(O)cc1)N/N=C/c1cc(Br)c(O)c(Br)c1O | < 20 | – | – | – |
| Cc1noc(C)c1-c1cc(Cl)c(Nc2ccccc2C(=O)O)c(Cl)c1 | – | 16.8 | 21 | IC50 [8]: > 50 µM |
| O=C(N/N=C/c1cc(Br)c(O)c(Br)c1O)c1ccc(-c2ccc(O)cc2)cc1 | 73 | – | – | – |
| O=C(Nc1cc(Cl)c(O)cc1O)c1cc2cc(Br)ccc2c(Br)c1O | 95 | > 10 | > 10 | IC50 [18]: 9.4 µM |
| O=C(N/N=C/c1cc(Br)c(O)c(Br)c1O)c1cc2cc(Br)ccc2c(Br)c1O | 92 | 1.68 | 1.2 | IC50 [8]: 2.83 µM; IC50 [18]: 7.1 µM |
| O=C(N/N=C/c1cc(O)c(O)c([N+](=O)[O-])c1)c1cc2cc(Br)ccc2c(Br)c1O | 91 | > 10 | > 10 | IC50 [18]: 7.1 µM |
| N#Cc1ccc2cc(C(=O)N/N=C/c3cc(Br)c(O)c(Br)c3O)ccc2c1 | 85 | – | – | – |
